Experimental findings from patent US9359341B2, “Aldehyde derivative of substitute oxazolidinones” (WANBURY LTD., priority 2012, dated 2016) are described below.

Data set [1] is described as follows: In vitro liver microsomal stability assay (rat). The format is in vitro ADME. The following applies: rat liver microsomes. How it is done: (§1) Liver microsomal stability assays are conducted at 1 mg per mL liver microsome protein with an NADPH in phosphate buffer (100 mM, pH 7.4). Test compounds (compound of formula B of the invention) are prepared as solutions in 20% methanol-water and added to the assay mixture (final assay concentration 1 μM) and incubated at 37° C. Aliquots (100.μ·L) are taken out at times 0, 15, and 30 minutes, and diluted with ice cold acetonitrile containing IS (200.mu·L) to stop the reactions. Samples are centrifuged at 10,000 RPM for 5 minutes to precipitate proteins. Supernatants are transferred to micro centrifuge tubes and stored at −20° C. for analysis of LC/MS/MS. The percent parent remaining of the test substance is calculated as Ratio of peak area at each time point to peak area ratio at zero min, multiplied by 100. The compound formula (B) is converted to Rivaroxaban in microsomal assay.
(In general: Liver microsomes are a subcellular fraction often used to study metabolism.)

The nature of data set [2]: In vitro liver microsomal stability assay (human). The format is in vitro ADME. The following applies: human liver microsomes. How it is done:
as §1

Where [3] appears, read: metabolised to rivaroxaban from zero min.

With `O=CN(C[C@H]1CN(c2ccc(N3CCOCC3=O)cc2)C(=O)O1)C(=O)c1ccc(Cl)s1` [Compound formula B, 5-chloro-N-formyl-N-({(5S)-2-oxo-3-[4-(3-oxomorpholin-4-yl)phenyl]-1,3-oxazolidin-5-yl}methyl)thiophene-2-carboxamide], the “Observation (metabolism; for Test Product: of the formed rivaroxaban)” value is listed as “shown metabolism” in data set [1] and “stable in human” in data set [2]. For the same compound, the “amount of test product detected” value in data set [1] (setting [3]) is on record as “min. Neglible”; in data set [2] (setting [3]) it was “Neglible amount”.
